Reference: patent US11236081B2, “Crystalline salts of corydalmine” (priority 2018, dated 2022)
Values joined by “and” are separate entries in the source; they are usually repeats but may differ in a detail not shown here. Equal values may be shown once.

Key:
[1] = Acid pKa of the free base; assay type: physicochemical
[2] = Solubility studies in water at 2 hours; assay type: physicochemical
[3] = Pharmacokinetic study: plasma concentration and plasma PK parameters after IV/PO dosing (LC-MS/MS, WinNonlin); assay type: in vivo, Male SD Rat; conditions: male SD rat
Procedure, shortened: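 Plasma levels after IV and oral dosing were measured by LC-MS/MS. Non-compartmental parameters came from concentration–time data: T1/2, C0, AUC, MRT, Cl and Vss for IV; T1/2, Cmax, Tmax, AUC, MRT and F% for PO. Values are given as mean and standard deviation.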

[4] = IV 3 mg/kg, plasma, individual rats, listed as TLZ-16 freebase, 3 mg/kg
[5] = PO 10 mg/kg (equal to freebase), plasma, individual rats, vehicle 20% HP-β-CD in water (POA, freebase) or water (salts), listed as TLZ-16 freebase, 10 mg/kg

Structure (SMILES): COc1cc2c(cc1OC)[C@@H]1Cc3ccc(O)c(OC)c3CN1CC2 [Compound (1), l-corydalmine]
- pKa [1]: ~5.2
- solubility at 2 h [2]: < 1 mg/mL
- concentration in plasma ([3]; IV 3 mg/kg, 0 h, individual rats): BLOQ (BLOQ = below limit of quantitation (0.2 ng/mL))
- concentration in plasma ([3]; IV 3 mg/kg, 0.083 h, individual rats, listed as TLZ-16 freebase, 3 mg/kg): 1.41 µg/mL and 1.61 µg/mL
- concentration in plasma ([3]; IV 3 mg/kg, 0.25 h, individual rats, listed as TLZ-16 freebase, 3 mg/kg): 0.96 µg/mL and 0.995 µg/mL
- concentration in plasma ([3]; IV 3 mg/kg, 0.5 h, individual rats, listed as TLZ-16 freebase, 3 mg/kg): 0.496 µg/mL and 0.536 µg/mL
- concentration in plasma ([3]; IV 3 mg/kg, 1 h, individual rats, listed as TLZ-16 freebase, 3 mg/kg): 0.174 µg/mL and 0.206 µg/mL
- concentration in plasma ([3]; IV 3 mg/kg, 2 h, individual rats, listed as TLZ-16 freebase, 3 mg/kg): 0.0812 µg/mL and 0.0606 µg/mL
- concentration in plasma ([3]; IV 3 mg/kg, 4 h, individual rats, listed as TLZ-16 freebase, 3 mg/kg): 0.0286 µg/mL and 0.043 µg/mL and 0.0202 µg/mL
- concentration in plasma ([3]; IV 3 mg/kg, 8 h, individual rats, listed as TLZ-16 freebase, 3 mg/kg): 0.00524 µg/mL and 0.0117 µg/mL and 0.0022 µg/mL
- concentration in plasma ([3]; IV 3 mg/kg, 24 h, individual rats, listed as TLZ-16 freebase, 3 mg/kg): BLOQ (BLOQ = below limit of quantitation (0.2 ng/mL))
- AUCInf [3, 4]: 1.074 µg·h/mL and 1.03 µg·h/mL
- AUClast [3, 4]: 1.038 µg·h/mL and 1.027 µg·h/mL
- AUClast/D [3, 4]: 312 kg·ng·h/mL/mg and 346 kg·ng·h/mL/mg and 342 kg·ng·h/mL/mg
- AUC—% Extrap_obs [3, 4]: 1.32% and 3.37% and 0.306%
- C0 [3, 4]: 1.707 µg/mL and 2.045 µg/mL
- Cl_obs [3, 4]: 3.16 L/h/kg and 2.79 L/h/kg and 2.92 L/h/kg
- MRTInf_obs [3, 4]: 1.52 h and 1.08 h
- T1/2 [3, 4]: 1.66 h and 2.14 h and 4.37 h
- Vss_obs [3, 4]: 3.43 L/kg and 4.26 L/kg and 3.16 L/kg
- AUClast/D, Mean ([3]; IV 3 mg/kg, plasma, mean n=3): 334 kg·ng·h/mL/mg
- AUC—% Extrap_obs, Mean ([3]; IV 3 mg/kg, plasma, mean n=3): 1.67%
- C0, Mean ([3]; IV 3 mg/kg, plasma, mean n=3): 1.822 µg/mL
- Cl_obs, Mean ([3]; IV 3 mg/kg, plasma, mean n=3): 2.95 L/h/kg
- Vss_obs, Mean ([3]; IV 3 mg/kg, plasma, mean n=3): 3.61 L/kg
- F ([3]; PO 10 mg/kg (equal to freebase) vs IV 3 mg/kg freebase, individual rats, vehicle 20% HP-β-CD in water (POA, freebase) or water (salts), listed as TLZ-16 freebase): 18.4% and 27.3% and 24.4%
- F, Mean ([3]; PO 10 mg/kg (equal to freebase) vs IV 3 mg/kg freebase, mean n=3, vehicle 20% HP-β-CD in water (POA, freebase) or water (salts)): 23.4%
- concentration in plasma ([3]; PO 10 mg/kg (equal to freebase), 0 h, individual rats, vehicle 20% HP-β-CD in water (POA, freebase) or water (salts)): BLOQ (BLOQ = below limit of quantitation (0.2 ng/mL))
- concentration in plasma ([3]; PO 10 mg/kg (equal to freebase), 0.25 h, individual rats, vehicle 20% HP-β-CD in water (POA, freebase) or water (salts), listed as TLZ-16 freebase, 10 mg/kg): 0.127 µg/mL and 0.358 µg/mL and 0.0867 µg/mL
- concentration in plasma ([3]; PO 10 mg/kg (equal to freebase), 0.5 h, individual rats, vehicle 20% HP-β-CD in water (POA, freebase) or water (salts), listed as TLZ-16 freebase, 10 mg/kg): 0.139 µg/mL and 0.344 µg/mL and 0.109 µg/mL
- concentration in plasma ([3]; PO 10 mg/kg (equal to freebase), 1 h, individual rats, vehicle 20% HP-β-CD in water (POA, freebase) or water (salts), listed as TLZ-16 freebase, 10 mg/kg): 0.167 µg/mL and 0.0989 µg/mL
- concentration in plasma ([3]; PO 10 mg/kg (equal to freebase), 2 h, individual rats, vehicle 20% HP-β-CD in water (POA, freebase) or water (salts), listed as TLZ-16 freebase, 10 mg/kg): 0.0531 µg/mL and 0.0719 µg/mL
- concentration in plasma ([3]; PO 10 mg/kg (equal to freebase), 4 h, individual rats, vehicle 20% HP-β-CD in water (POA, freebase) or water (salts), listed as TLZ-16 freebase, 10 mg/kg): 0.0471 µg/mL and 0.0401 µg/mL
- concentration in plasma ([3]; PO 10 mg/kg (equal to freebase), 8 h, individual rats, vehicle 20% HP-β-CD in water (POA, freebase) or water (salts), listed as TLZ-16 freebase, 10 mg/kg): 0.0357 µg/mL and 0.0453 µg/mL
- concentration in plasma ([3]; PO 10 mg/kg (equal to freebase), 24 h, individual rats, vehicle 20% HP-β-CD in water (POA, freebase) or water (salts), listed as TLZ-16 freebase, 10 mg/kg): BLOQ (BLOQ = below limit of quantitation (0.2 ng/mL)) and 0.278 ng/mL and 0.869 ng/mL
- AUCInf [3, 5]: 0.925 µg·h/mL and 0.829 µg·h/mL
- AUClast [3, 5]: 0.924 µg·h/mL and 0.825 µg·h/mL
- AUClast/D [3, 5]: 61.5 kg·ng·h/mL/mg and 92.4 kg·ng·h/mL/mg and 82.5 kg·ng·h/mL/mg
- AUC—% Extrap_obs [3, 5]: 58.7% and 0.111% and 0.505%
- Cmax [3, 5]: 0.139 µg/mL and 0.358 µg/mL and 0.109 µg/mL
- MRTInf_obs [3, 5]: 13.6 h and 4.19 h and 5.68 h
- T1/2 [3, 5]: 8.80 h and 2.57 h and 3.34 h
- Tmax [3, 5]: 0.25 h
